Values of other authors, collected in patent US20140243418A1, “RASAGILINE FOR PARKINSON'S DISEASE MODIFICATION” (Teva Pharmaceutical Industries, Ltd., priority 2008, published 2014).

What was measured:
[1] = molecular target: T1, Type-B Monoamine Oxidase (MAO-B) (Homo sapiens, UniProt P27338); conditions: cited from earlier work
T1 sequence (P27338 1-520): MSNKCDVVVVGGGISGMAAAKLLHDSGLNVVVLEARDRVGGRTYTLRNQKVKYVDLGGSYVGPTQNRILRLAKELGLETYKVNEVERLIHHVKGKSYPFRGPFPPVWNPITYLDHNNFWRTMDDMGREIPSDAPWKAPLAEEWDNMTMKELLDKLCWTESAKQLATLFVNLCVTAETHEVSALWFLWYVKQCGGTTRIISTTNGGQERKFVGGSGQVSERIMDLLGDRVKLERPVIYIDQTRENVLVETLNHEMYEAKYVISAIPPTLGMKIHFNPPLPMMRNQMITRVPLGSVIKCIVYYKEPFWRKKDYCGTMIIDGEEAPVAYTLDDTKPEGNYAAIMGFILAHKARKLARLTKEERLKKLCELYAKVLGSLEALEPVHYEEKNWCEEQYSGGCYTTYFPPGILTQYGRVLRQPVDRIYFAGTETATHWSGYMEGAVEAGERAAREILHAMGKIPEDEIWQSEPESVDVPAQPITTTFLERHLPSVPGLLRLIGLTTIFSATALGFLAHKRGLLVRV

[2] = system: Parkinson's disease; conditions: three doses tested; time to need for levodopa as primary endpoint; cited from earlier work
[3] = system: Parkinson's disease; conditions: 12 months of treatment and 2 months of drug wash-out; vs placebo; cited from earlier work

In the case of `C#CCN(C)CC1=Cc2ccccc2Oc2ccccc21.O=C(O)/C=C\C(=O)O` [TCH346], the “inhibition of Type-B Monoamine Oxidase (MAO-B)” value [1] is listed as “did not inhibit” and the “effect on primary or secondary endpoints” value [2] is listed as “did not demonstrate a positive effect”.
In the case of `C#CCN(C)[C@H](C)Cc1ccccc1` [selegiline], the “deterioration from baseline in UPDRS motor score” value [3] is given as “less deterioration from baseline than patients treated with placebo”.
